Assay results reported in paper PMC10213809 (Cell Reports Medicine, 2023).
Entries after “also recorded” stand apart in the source; their conditions may differ.

What was measured:
CHIKV [1] = assay type: cell-based, Chikungunya virus; settings: for inhibition of CHIKV, primary screen: HFF-1
ZIKV = assay type: cell-based, Zika virus; settings: HFF-1; for infectivity against ZIKV at the highest non-toxic dose: 100 μg/mL
CHIKV [2] = assay: Viral-mediated cytopathic effect / cell death in infected HFF-1 cells; assay type: cell-based, Chikungunya virus; settings: HFF-1, 48 hpi, effective concentration
[3] = tested on: arboviruses (CHIKV, WNV, ZIKV); assay: qRT-PCR of viral genome replication in drug-treated fibroblasts at 48 hpi; assay type: cell-based
WNV [4] = assay type: cell-based, West Nile virus; settings: for infectivity against WNV at the highest non-toxic dose: 100 μg/mL; for infectivity against WNV at the highest non-toxic dose / inhibition of WNV, primary screen: HFF-1; for antiviral activity (inhibition) against WNV, primary screen: HFF-1, moderate antiviral activity
[5] = tested on: TBK-IRF3 signaling cascade; assay type: cell-based, human; settings: HFF-1, pretreatment, uninfected cells
RSV = assay type: cell-based, respiratory syncytial virus
WNV [6] = assay type: cell-based, West Nile virus
CHIKV [7] = assay type: cell-based, Chikungunya virus
CHIKV (strain 181/25) [8] = assay: Histopathology and IHC of CHIKV-infected mouse footpad; assay type: in vivo
HFF-1 cells [9] = assay: Intracellular ATP level; assay type: cell-based, human; settings: CHIKV-infected HFF-1, 48 hpi
CHIKV [10] = assay: RNA sequencing of drug-treated CHIKV-infected HFF-1 cells; assay type: cell-based, Chikungunya virus; settings: for viral genome reads of the total reads: RNA sequencing
CHIKV (strain 181/25) [11] = assay: CHIKV arthritis mouse model
HFF-1 cells [12] = assay: NAD/NADH-Glo assay, intracellular NADH; assay type: cell-based, human; settings: HFF-1, 48 hpi
CHIKV [13] = assay type: cell-based, Chikungunya virus; settings: read-out: IC50, antiviral activity against CHIKV; human fibroblasts (HFF-1), eight-dose response
CHIKV [14] = assay type: cell-based, Chikungunya virus; remark: listed apart in the source
[15] = tested on: STING-IRF3 and STING-NF-κB pathways; assay type: cell-based, human; settings: HFF-1, 2 h post-stimulation

Nc1nc2c(ncn2[C@@H]2O[C@@H]3COP(=O)(O)O[C@H]4[C@@H](O)[C@H](n5cnc6c(N)ncnc65)O[C@@H]4COP(=O)(O)O[C@@H]2[C@@H]3O)c(=O)[nH]1 [2'3'-cGAMP, 2′,3′-cGAMP]
infectivity against CHIKV at the highest non-toxic dose (CHIKV [1]): below-detectable infectivity
infectivity against ZIKV at the highest non-toxic dose (ZIKV): below-detectable infectivity
viral-mediated cytopathic effect (CPE) (CHIKV [2]): prevented CPE
viral genome replication (qRT-PCR) [3]: significantly reduced
infectivity against WNV at the highest non-toxic dose (WNV [4]): below-detectable infectivity
phosphorylation of IRF3 (western blot) [5]: induced phosphorylation of IRF3

Nc1nc2c(ncn2[C@@H]2O[C@@H]3COP(=O)(O)O[C@H]4[C@@H](O)[C@H](n5cnc6c(N)ncnc65)O[C@@H]4COP(=O)(O)O[C@H]3[C@H]2O)c(=O)[nH]1 [3'3'-cGAMP, 3′,3′-cGAMP]
infectivity against CHIKV at the highest non-toxic dose (CHIKV [1]): below-detectable infectivity
infectivity against ZIKV at the highest non-toxic dose (ZIKV): below-detectable infectivity
viral-mediated cytopathic effect (CPE) (CHIKV [2]): prevented CPE
infectivity against WNV at the highest non-toxic dose (WNV [4]): below-detectable infectivity
phosphorylation of IRF3 (western blot) [5]: induced phosphorylation of IRF3

O=c1cnn([C@@H]2O[C@H](CO)[C@@H](O)[C@H]2O)c(=O)[nH]1 [6-azauridine, 6-Azauridine]
inhibition of RSV infection (RSV): efficient inhibition

CCCCCCCCCCCCCCCC(=O)OCC(CSC[C@H](N)C(=O)N[C@@H](CO)C(=O)N[C@@H](CCCCN)C(=O)N[C@@H](CCCCN)C(=O)N[C@@H](CCCCN)C(=O)N[C@@H](CCCCN)C(=O)Nc1ccc(Cn2c(O)nc3c(N)nc(NCCCC)nc32)cc1)OC(=O)CCCCCCCCCCCCCCC (some centres unmarked) [Adilipoline(CL413)]
effect on viral replication, primary screen (Figure 1C) (CHIKV [1]): enhanced viral replication

CC(C)Cn1cnc2c(N)nc3ccccc3c21 [Imiquimod]
inhibition of CHIKV, primary screen (CHIKV [1]): not against CHIKV
inhibition of ZIKV, primary screen (ZIKV): potent inhibition
viral genome replication (qRT-PCR) [3]: significantly reduced
inhibition of WNV, primary screen (WNV [4]): potent inhibition
antiviral activity (inhibition) against WNV, primary screen (WNV [4]): > 50%

CC(=O)N[C@@H]1[C@@H](O[C@H](C)C(=O)N[C@@H](C)C(=O)N[C@H](CCC(=O)O)C(N)=O)[C@H](O)[C@@H](CO)O[C@H]1O [MDP]
inhibition of CHIKV, primary screen (CHIKV [1]): not against CHIKV
inhibition of ZIKV, primary screen (ZIKV): potent inhibition
inhibition of WNV, primary screen (WNV [4]): potent inhibition

CCC(CC)COC(=O)[C@H](C)N[P@](=O)(OC[C@H]1O[C@@](C#N)(c2ccc3c(N)ncnn23)[C@H](O)[C@@H]1O)Oc1ccccc1 [Remdesivir]
inhibition of RSV infection (RSV): efficient inhibition
antiviral activity against WNV (WNV [6]): no effective antiviral activity; also recorded: not active
antiviral activity against CHIKV (CHIKV [7]): no effective antiviral activity; also recorded: not active

Nc1ncnc2c1ncn2[C@@H]1O[C@@H]2COP(=O)(O)O[C@H]3[C@@H](O)[C@H](n4cnc5c(N)ncnc54)O[C@@H]3COP(=O)(O)O[C@H]2[C@H]1O [c-di-AMP]
antiviral activity (inhibition) against WNV, primary screen (WNV [4]): > 50%

Nc1nc2c(ncn2[C@@H]2O[C@@H]3COP(=O)(O)O[C@H]4[C@@H](O)[C@H](n5cnc6c(=O)[nH]c(N)nc65)O[C@@H]4COP(=O)(O)O[C@H]3[C@H]2O)c(=O)[nH]1 [c-di-GMP]
effect on viral replication, primary screen (Figure 1C) (CHIKV [1]): enhanced viral replication
inhibition of CHIKV, primary screen (CHIKV [1]): not against CHIKV
inhibition of ZIKV, primary screen (ZIKV): potent inhibition
inhibition of WNV, primary screen (WNV [4]): potent inhibition

Nc1ncnc2c1ncn2[C@@H]1O[C@@H]2COP(=O)(O)O[C@H]3[C@@H](O)[C@H](n4cnc5c(=O)[nH]cnc54)O[C@@H]3COP(=O)(O)O[C@H]2[C@H]1O [cAIMP]
inflammatory cellular infiltration, therapeutic (CHIKV (strain 181/25) [8]; cAIMP 10 mg/kg i.p. at 6 or 12 hpi, left footpad): reducing
pathological changes and left-rear footpad swelling (histopathology) (CHIKV (strain 181/25) [8]; cAIMP pretreatment, 7 dpi): prevented
antiviral activity, post-treatment of CHIKV-infected cells (CHIKV [1]): potent antiviral activity
infectivity against CHIKV at the highest non-toxic dose (CHIKV [1]): below-detectable infectivity
intracellular ATP (HFF-1 cells [9]): prevented ATP depletion
infectivity against ZIKV at the highest non-toxic dose (ZIKV): below-detectable infectivity
HEATR9 expression induced by CHIKV (CHIKV [10]; CHIKV-infected HFF-1): reversed the induction
reduction of viral gene expression compared with untreated infected cells (CHIKV [10]; CHIKV-infected HFF-1, 24 hpi): about 880 fold
viral genome reads of the total reads (CHIKV [10]; CHIKV-infected HFF-1, 24 hpi): 0.1%
viral-mediated cytopathic effect (CPE) (CHIKV [2]): prevented CPE
viral genome replication (qRT-PCR) [3]: significantly reduced
volume of footpad swelling, chronic long-term follow-up (CHIKV (strain 181/25) [11]; 14-month-old mice, cAIMP pretreatment, up to 2 months post-infection): significantly reduced
virus replication, chronic long-term follow-up (CHIKV (strain 181/25) [11]; 14-month-old mice, cAIMP pretreatment, up to 2 months post-infection (59 dpi)): significantly reduced
inflammatory gene expression, therapeutic (CHIKV (strain 181/25) [11]; mouse, cAIMP 10 mg/kg i.p. at 6 or 12 hpi, left footpad): reducing
viral replication, therapeutic (CHIKV (strain 181/25) [11]; mouse, cAIMP 10 mg/kg i.p. single dose at 6 or 12 hpi): reducing
footpad swelling, therapeutic (CHIKV (strain 181/25) [11]; mouse, cAIMP 10 mg/kg i.p. single dose at 6 or 12 hpi, up to 21 dpi): protected the animals from significant footpad swelling
CHIKV-mediated footpad swelling, prophylactic (CHIKV (strain 181/25) [11]; mouse, cAIMP 10 mg/kg i.p. single dose at day -1, observed 7 days): significantly prevented
body weight changes (CHIKV (strain 181/25) [11]; mouse, cAIMP at 6 or 12 h post-CHIKV infection): No significant body weight changes
reduction in viral genome replication in left-rear footpad (qRT-PCR) (CHIKV (strain 181/25) [11]; mouse, cAIMP pretreatment 10 mg/kg i.p., day 3): 2 log
expression of inflammatory genes Ccl2, Il-6 and Il-10 in left footpad (CHIKV (strain 181/25) [11]; mouse, cAIMP-pretreated, 7 dpi): significant downregulation
nicotinamide adenine dinucleotide (NADH) levels (HFF-1 cells [12]): increased
infectivity against WNV at the highest non-toxic dose (WNV [4]): below-detectable infectivity
phosphorylation of IRF3 (western blot) [5]: induced phosphorylation of IRF3

CCn1nc(C)cc1C(=O)Nc1nc2cc(C(N)=O)cc(OC)c2n1C/C=C/Cn1c(NC(=O)c2cc(C)nn2CC)nc2cc(C(N)=O)cc(OCCCN3CCOCC3)c21 [diABZI]
antiviral activity, post-treatment of CHIKV-infected cells (CHIKV [1]): potent antiviral activity
viral-mediated cytopathic effect (CPE) (CHIKV [2]): prevented CPE
viral genome replication (qRT-PCR) [3]: significantly reduced
phosphorylation of IRF3 (western blot) [5]: induced phosphorylation of IRF3
IC50 (CHIKV [13]): 10.1 nM

Scleroglucan
viral genome reads of the total reads (CHIKV [10]; CHIKV-infected HFF-1, 24 hpi): 63%
viral-mediated cytopathic effect (CPE) (CHIKV [2]): prevented CPE
viral genome replication (qRT-PCR) [3]: significantly reduced
antiviral activity (inhibition) against WNV, primary screen (WNV [4]): > 50%
CHIKV productive infection / replication in PSC-CMs (CHIKV [14]): inhibited; also recorded: moderately reducing
phosphorylation of IRF3 (western blot) [5]: only the basal level
phosphorylation of IRF3 (Ser386) [15]: only a few cells have a cytoplasmic form of phospho-IRF3
phosphorylation of STING (Ser366) [15]: did not have detectable levels
